{"source": "paper PMC10610379", "about": "“Epidrugs as Promising Tools to Eliminate Plasmodium falciparum Artemisinin-Resistant and Quiescent Parasites” (Pharmaceutics, 2023)", "key": {"NFF": {"tested_on": "NFF", "settings": "cited from earlier work"}, "HFF": {"tested_on": "HFF", "settings": "read-out: Cytotoxicity: CC50 (HFF), data from literature ref 48; cited from earlier work"}, "[1]": {"tested_on": "ART-resistant parasites F32-ART at the quiescent stage", "assay": "Quiescent-stage Survival Assay (QSA), 48-h exposure", "type": "cell-based, Plasmodium falciparum", "description": "The sensitivity of the ART-resistant parasites F32-ART at the quiescent stage towards the different molecules was determined using the QSA (Quiescent-stage Survival Assay), as previously described.\nEpidrugs were tested at their IC90 values. In the present study, quiescence was induced using 3 µM of ART or 700 nM of DHA [28]. Thus, D-sorbitol synchronized ring-stage parasites at 3% parasitemia and 2% hematocrit (5 mL of culture per well in 6-well plates) were first exposed to 6 h of ART or DHA to induce quiescence and then to 48 h of the combination “ART or DHA + compound to be tested”. The combinations “ART 6 h/ART 48 h” or “DHA 6 h/DHA 48 h” were used as controls. The compounds were evaluated, in parallel, on proliferating parasites, i.e., without any pre-treatment. After drug exposure, parasite cultures were washed with 40 mL of RPMI-1640 medium and cultured in drug-free conditions supplemented with 10% human serum in new wells. The parasitemia for each condition was then microscopically monitored every 2 days. Culture media were renewed twice a week and 25 µL of fresh red blood cells were added once a week. Obtained data were used to perform Kaplan–Meier survival analyses considering censored data. The outcome was defined as the day when parasite cultures reached the initial parasitemia (3%) and data were considered as censored if no parasite recrudescence was observed during the 30-day experiment timeframe. When relevant, statistical significance between results obtained for the conditions “ART/ART” and “ART/ART + compound to be tested” or “DHA/DHA” and “DHA/DHA + compound to be tested” was determined by a Log Rank (Mantel Cox) test using GraphPad Prism version 7.05. For the best compounds targeting histones, in order to compare western blots data, modified QSAs were carried out by comparing “DHA 6 h/DHA 24 h” versus “DHA 6 h/DHA + compound to be tested 24 h”."}, "[2]": {"tested_on": "Plasmodium falciparum F32-TEM (artemisinin-sensitive twin line)", "assay": "Standard chemosensitivity assay (SYBR Green I), F32-TEM", "type": "cell-based", "settings": "Plasmodium falciparum; F32-TEM, 48 h incubation, SYBR Green I; mean ± SEM of 3 experiments (* mean of 2); read-out: Antiplasmodial Activity: IC50, F32-TEM", "description": "(§1) They differ by eight mutations in seven genes (PF3D7_0110400, PF3D7_1343700, PF3D7_0213400, PF3D7_1115700, PF3D7_1302100, PF3D7_1459600, PF3D7_1464500) among them the M476I mutation on the kelch13 gene. F32-ART and F32-TEM strains have RSA^0–3 h values up to 12% and less than 0.1%, respectively. […] Both strains were cultured, in the same conditions, according to the Trager and Jensen protocol with modifications. Briefly, parasites were cultivated in RPMI-1640 medium (Biowest) at 2% hematocrit in human red blood cells and 5% human serum (EFS, French Blood Bank) under 5% CO2 in a humid atmosphere at 37 °C.\n(§2) The antimalarial activities of the compounds were evaluated on both strains. […] Antimalarial activities were determined with the SYBR Green I method. Each drug concentration was tested in triplicate. The parasites were incubated with the drugs for 48 h. Plates were read on a BioTek FLX800 Microplate Fluorescence Reader (Bio-Tek instruments, Winooski, VT, USA) (λexcitation = 485 nm, λemission = 528 nm). Control parasite culture (i.e., RPMI with 0.5% DMSO) was referred to as 100% growth. IC50 and IC90 values were determined using GraphPad Prism version 7.05 (GraphPad Software, San Diego, CA, USA). Results were the mean of 3 independent experiments. When it is relevant, statistical significance between results obtained with both parasite strains was determined by a Mann–Whitney test using GraphPad Prism version 7.05."}, "[3]": {"tested_on": "ART-resistant parasites F32-ART at the quiescent stage", "assay": "Modified QSA, 24-h exposure", "type": "cell-based, Plasmodium falciparum", "settings": "DHA 700 nM, compound at its IC90, 24-h exposure", "description": "Epidrugs were tested at their IC90 values. In the present study, quiescence was induced using 3 µM of ART or 700 nM of DHA [28]. Thus, D-sorbitol synchronized ring-stage parasites at 3% parasitemia and 2% hematocrit (5 mL of culture per well in 6-well plates) were first exposed to 6 h of ART or DHA to induce quiescence and then to 48 h of the combination “ART or DHA + compound to be tested”. The combinations “ART 6 h/ART 48 h” or “DHA 6 h/DHA 48 h” were used as controls. The compounds were evaluated, in parallel, on proliferating parasites, i.e., without any pre-treatment. […] The parasitemia for each condition was then microscopically monitored every 2 days. […] When relevant, statistical significance between results obtained for the conditions “ART/ART” and “ART/ART + compound to be tested” or “DHA/DHA” and “DHA/DHA + compound to be tested” was determined by a Log Rank (Mantel Cox) test using GraphPad Prism version 7.05. […]\nTo collect enough material for immunoblotting, we performed the analysis after a 24-h exposure of DHA-treated parasites to the epidrug and in parallel evaluated the activity of the three epidrugs in a modified QSA, in which quiescent parasites were exposed to the drug to be tested for 24 instead of 48 h, as in our previous experiments (Figure 2)."}, "[4]": {"tested_on": "Plasmodium falciparum F32-ART (artemisinin-resistant strain)", "assay": "Standard chemosensitivity assay (SYBR Green I), F32-ART", "type": "cell-based", "settings": "for IC50: F32-ART, 48 h incubation, SYBR Green I, mean ± SEM of 3 experiments (* mean of 2), read-out: Antiplasmodial Activity: IC50, F32-ART; for Selectivity Index CC50/IC50: ratio cytotoxicity (mammalian cell type of the CC50)/antiplasmodial activity on F32-ART", "description": "as §1, §2"}, "H3K4me2": {"tested_on": "H3K4me2", "assay": "Immunoblotting, histone mark abundance in F32-ART parasites", "type": "cell-based, Plasmodium falciparum", "settings": "270 nM", "description": "(§3) Abundance of methylated and acetylated histone was determined in parasite cultures in different conditions: “not-treated”, “DHA 24 h”, “DHA 6 h/DHA 24 h” and “DHA 6 h/DHA + compound to be tested 24 h”. At the end of the treatments, parasite cultures were washed in RPMI-1640 and then twice in PBS 1× before red blood cell lysis with 0.075% saponin (Sigma-Aldrich) in PBS. Parasite ghosts were washed 3 times in PBS before incubating the ghosts with E1A lysis buffer (50 mM Hepes pH 7.5; 250 mM NaCl; 5 mM EDTA; 0.1% Triton X-100, 1 mM DTT, 0.2 mM PMSF supplemented with complete Mini EDTA-free protease inhibitor cocktail (Roche®, Basel, Switzerland)) for 15 min. Ghosts were then sonicated for 3 × 15s ON/OFF cycles to shear parasite membranes. Debris were pelleted by centrifuging for 15 min at 13,800× g and 4 °C, and supernatants (containing parasitic proteins) were then collected. Protein concentrations were determined using BCA assay (Bio-Rad, Hercules, CA, USA) according to the manufacturer’s instructions. For each sample, 10 µg of proteins were mixed with 4× sample buffer (10 mL 50% Glycerol, 5 mL 0.5 M Tris HCl pH 6.8, 4 mL 20% SDS, 0.02% Bromophenol blue for a total solution volume of 20 mL) and 100 mM DTT and then separated on 15% SDS-PAGE gels in Laemmli running buffer. Gels were then wet-transferred O/N at 20 V onto PVDF membranes. Membranes were blocked in TBST for 1 h at room temperature. Bottom parts were then probed with histone antibodies while upper parts were probed with PFALDOLASE antibody (Abcam, ab38905, Cambridge, UK) at 1:20,000 dilution. The following primary antibodies were used: anti-H3K4me1 (Abcam, ab8895); anti-H3K4me2 (Abcam, ab35356); anti-H3K9me2 (Abcam, ab1220); anti-H3K9me3 (Millipore, 07-442, Burlington, MA, USA); anti-tetra-acetyl H4 (Millipore, 06-866); anti-H4K8Ac (Millipore, 07-328); anti-H4K20me3 (Abcam, ab9053); anti-H3K4me3 (Diagenode) and anti-H3K9Ac (Millipore, 07-352) at 1:10,000. The following secondary antibodies were used: anti-rabbit IgG-Peroxidase produced in goat (Sigma-Aldrich) or anti-mouse IgG-Peroxidase (Sigma-Aldrich); at 1:20,000 dilutions. Blots were developed using ECL Prime Western Blotting (GE Healthcare, Chicago, IL, USA) and read on a Chemidoc touch imaging software. Densitometry analysis was performed by using ImageLab software from Bio-Rad. To determine if variations in histone abundances were statistically significant, immunoblotting experiments were performed on 3 biological replicates and each run was performed twice."}, "H3K4me3": {"tested_on": "H3K4me3", "assay": "Immunoblotting, histone mark abundance in F32-ART parasites", "type": "cell-based, Plasmodium falciparum", "settings": "270 nM", "description": "as §3"}, "H3K4me1": {"tested_on": "H3K4me1", "assay": "Immunoblotting, histone mark abundance in F32-ART parasites", "type": "cell-based, Plasmodium falciparum", "settings": "270 nM", "description": "as §3"}, "H4K20me3": {"tested_on": "H4K20me3", "assay": "Immunoblotting, histone mark abundance in F32-ART parasites", "type": "cell-based, Plasmodium falciparum", "settings": "270 nM", "description": "as §3"}, "[5]": {"settings": "24 h, F32-ART ring stage proliferating, 3 replicates (Fig 3C)"}, "[6]": {"settings": "DHA 6 h/DHA + TM2-115 24 h, F32-ART DHA-treated parasites, 3 replicates (Fig 3G)"}}, "note": "“And” between values parts separate entries of the source, which are not always exact repeats. Equal values may be shown once. Read-outs that look alike come from different tables or passages of the source.", "data": [{"smiles": "O=C(CCCCCCC(=O)Nc1ccccc1)NO", "note": "[SAHA]", "values": [{"measurement": "CC50", "setting": "NFF; read-out: Cytotoxicity: CC50 (NFF), data from literature ref 43", "result": 5.5, "unit": "µM"}]}, {"smiles": "COc1cc2c(NC3CCN(C)CC3)nc(N3CCCN(C)CC3)nc2cc1OCc1ccccc1", "note": "[TM2-115]", "values": [{"measurement": "CC50", "setting": "HFF", "result": 5.7, "unit": "µM"}, {"measurement": "Delay in parasite recrudescence time (difference between median recrudescence times), ART/ART + compound vs ART/ART", "setting": "[1]; quiescence induced with ART 3 µM 6 h, then 48 h ART + compound at its IC90", "result": 9.5, "unit": "days"}, {"measurement": "Delay in recrudescence time, DHA/DHA + compound vs DHA/DHA", "setting": "[1]; quiescence induced with DHA 700 nM 6 h, then 48 h DHA + compound at its IC90", "result": "≥ 6", "unit": "days"}, {"measurement": "IC50", "setting": "[2]", "result": "0.104 ± 0.032", "unit": "µM"}, {"measurement": "Recrudescence in modified QSA, DHA 6 h/DHA + compound 24 h vs DHA 6 h/DHA 24 h", "setting": "[3]", "result": "clearly impaired quiescent parasite survival"}, {"measurement": "IC90", "setting": "[4]; Plasmodium falciparum, F32, concentration used in QSA and immunoblotting", "result": 0.27, "unit": "µM"}, {"measurement": "IC50", "setting": "[4]; Plasmodium falciparum", "result": "0.128 ± 0.03", "unit": "µM"}, {"measurement": "Selectivity Index CC50/IC50", "setting": "[4]", "result": 45}, {"measurement": "Fold change of H3K4me2 abundance, TM2-115 vs DMSO", "setting": "H3K4me2; [5]", "result": "1.31 and 1.11 and 0.85"}, {"measurement": "Fold change of H3K4me2 abundance, TM2-115, quiescent stage", "setting": "H3K4me2; [6]", "result": "did not induce a quantifiable change and 1.00 and 0.95 and 0.47"}, {"measurement": "Fold change of H3K4me3 abundance, TM2-115 vs DMSO", "setting": "H3K4me3; [5]", "result": "1.39 and 1.69 and 1.12"}, {"measurement": "Fold change of H3K4me3 abundance, TM2-115, quiescent stage", "setting": "H3K4me3; [6]", "result": "did not induce a quantifiable change and 0.81 and 0.67 and 1.16"}, {"measurement": "Fold change of H3K4me1 abundance, TM2-115 vs DMSO", "setting": "H3K4me1; [5]", "result": "1.37 and 0.47 and 2.10"}, {"measurement": "Fold change of H3K4me1 abundance, TM2-115, quiescent stage", "setting": "H3K4me1; [6]", "result": "did not induce a quantifiable change and 0.51 and 1.07 and 0.76"}, {"measurement": "Fold change of H4K20me3 abundance, TM2-115 vs DMSO", "setting": "H4K20me3; [5]", "result": "inhibited H4K20 methylation and 0.82 and 0.71 and 0.76"}, {"measurement": "Fold change of H4K20me3 abundance, TM2-115, quiescent stage", "setting": "H4K20me3; [6]", "result": "did not induce a quantifiable change and 1.10 and 1.20 and 0.97"}]}, {"smiles": "CC(/C=C/C(=O)NO)=C\\[C@@H](C)C(=O)c1ccc(N(C)C)cc1", "note": "[Trichostatin A]", "values": [{"measurement": "CC50", "setting": "NFF; read-out: Cytotoxicity: CC50 (NFF), data from literature ref 40", "result": 0.2, "unit": "µM"}, {"measurement": "IC50", "setting": "[2]", "result": "0.03 ± 0.003", "unit": "µM"}, {"measurement": "IC50", "setting": "[4]; Plasmodium falciparum", "result": "0.029 ± 0.012", "unit": "µM"}, {"measurement": "Selectivity Index CC50/IC50", "setting": "[4]", "result": 7}]}]}
